What was measured:
[1] = biological target: T1, AmPDH (Agaricus meleagris pyranose dehydrogenase, pdh1) (Macropsalliota meleagris, UniProt Q3L245, H128Y); test: steady-state kinetics; format: biochemical; settings: apparent; electron acceptor; 25 mM D-glucose as donor; pH 4; 30 °C; read-out: H103Y / K m /
T1 construct: monomeric glycoprotein about 90 kDa, 64 kDa deglycosylated
Description: steady-state kinetics on AmPDH (Agaricus meleagris pyranose dehydrogenase, pdh1)

[2] = biological target: T1, AmPDH (Agaricus meleagris pyranose dehydrogenase, pdh1); test: UV-vis spectra before and after TCA/acetone precipitation; format: binding; settings: non-covalent, tightly bound; pH 7.5 spectra
[3] = biological target: T2, AmPDH (Agaricus meleagris pyranose dehydrogenase, pdh1) (Macropsalliota meleagris, UniProt Q3L245); test: as above; format: binding; settings: covalent (to H103); pH 7.5 spectra
T2 construct: monomeric glycoprotein about 90 kDa, 64 kDa deglycosylated
T2 sequence (Q3L245 26-602): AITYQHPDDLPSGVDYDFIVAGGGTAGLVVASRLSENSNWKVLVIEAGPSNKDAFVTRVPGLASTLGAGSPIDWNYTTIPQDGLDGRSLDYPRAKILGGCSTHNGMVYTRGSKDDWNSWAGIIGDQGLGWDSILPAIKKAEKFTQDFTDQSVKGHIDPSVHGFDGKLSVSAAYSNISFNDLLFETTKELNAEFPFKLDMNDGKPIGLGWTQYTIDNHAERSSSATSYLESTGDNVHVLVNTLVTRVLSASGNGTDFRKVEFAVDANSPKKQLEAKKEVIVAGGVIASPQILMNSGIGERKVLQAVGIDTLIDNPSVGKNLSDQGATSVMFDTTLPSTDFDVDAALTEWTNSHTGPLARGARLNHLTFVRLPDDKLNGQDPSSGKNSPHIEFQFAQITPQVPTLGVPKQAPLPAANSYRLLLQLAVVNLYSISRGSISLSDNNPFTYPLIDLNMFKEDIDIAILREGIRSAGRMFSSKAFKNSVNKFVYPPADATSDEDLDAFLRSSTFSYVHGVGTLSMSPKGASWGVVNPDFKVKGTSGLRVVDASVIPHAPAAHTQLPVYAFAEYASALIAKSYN

[4] = biological target: T1, AmPDH (Agaricus meleagris pyranose dehydrogenase, pdh1); test: steady-state kinetics, ferrocenium assay; format: biochemical; settings: apparent; electron acceptor; 25 mM D-glucose as donor; pH 8.5; 30 °C; read-out: H103Y / K m /
Description: steady-state kinetics, ferrocenium assay on AmPDH (Agaricus meleagris pyranose dehydrogenase, pdh1)

T1 sequence (Q3L245 26-602 H128Y): as the sequence (Q3L245 26-602) above, with H103Y counted along it

Question: For O=C1C=CC(=O)C=C1 [1,4-BQ, 1,4-benzoquinone], which Km [1] is on record?
Answer: 3640 ± 470 µM

Question: What does the source list for Cc1cc2nc3c(=O)[nH]c(=O)nc-3n(C[C@H](O)[C@H](O)[C@H](O)COP(=O)(O)OP(=O)(O)OC[C@H]3O[C@@H](n4cnc5c(N)ncnc54)[C@H](O)[C@@H]3O)c2cc1C [FAD]?
Answer: UV-vis spectra before and after TCA/acetone precipitation [2]: the variant H103Y carries a tightly but non-covalently bound FAD cofactor; UV-vis spectra before and after TCA/acetone precipitation [3]: the wild-type protein did not release the covalently bound FAD

Question: How did the Km [4] turn out when F[P-](F)(F)(F)(F)F.[Fe+3].c1cc[cH-]c1.c1cc[cH-]c1 [Fc+PF6, ferrocenium hexafluorophosphate] was run?
Answer: 100 ± 10 µM
